The record followed here is ChEMBL document CHEMBL1157172, “Rational design, synthesis, and in vivo evaluation of the antileukemic activity of six new alkylating steroidal esters” (Bioorg Med Chem, 2008).

Structures are written as SMILES. Activity calls are given as the source filed them. No cut-off for these calls is given here.

The subject of data set [1] is L1210. In words: Increase in median life span in BDF1 mouse L1210 cells at 120 mg/kg/day, ip relative to corn oil. The format is functional. Conditions: route intraperitoneal.
For data set [2], the system named is L1210. The experiment in a line: Antitumor activity in BDF1 mouse L1210 cells assessed as mean survival days at 120 mg/kg/day, ip. The conditions noted are these: route intraperitoneal. In kind it is functional.
Data set [3] in a line: (§1) Acute toxicity in ip dosed BALB/c mouse after 30 days. The format is organism-based. The conditions noted are these: BALB/c, in vivo.
In another data set the test system is Mus musculus. The description is as §1. The conditions noted are these: in vivo, 720 h. The format is organism-based.
The test system of data set [4] is L1210. In words: Antitumor activity in BDF1 mouse L1210 cells assessed as number of cured mouse at 120 mg/kg/day, ip after 90 days. In kind it is functional, organism-based.
In data set [5] the test system is P388. In words: Antitumor activity in BDF1 mouse bearing P388 cells assessed as mean survival days at 120 mg/kg/day, ip. In kind it is functional. Conditions: route intraperitoneal.
Data set [6] relates to P388. In words: Increase in median life span in BDF1 mouse bearing P388 cells at 120 mg/kg/day, ip relative to corn oil. The format is functional. The conditions noted are these: route intraperitoneal.
The subject of data set [7] is L1210. In words: Increase in median life span in BDF1 mouse L1210 cells at 22 mg/kg/day, ip relative to corn oil. In kind it is functional. Conditions: route intraperitoneal.
Data set [8] deals with P388. The experiment in a line: Increase in median life span in BDF1 mouse bearing P388 cells at 22 mg/kg/day, ip relative to corn oil. The format is functional. Conditions: route intraperitoneal.
Data set [9] has as its system L1210. In words: Antitumor activity in BDF1 mouse L1210 cells assessed as number of cured mouse at 22 mg/kg/day, ip after 90 days. The format is functional, organism-based.
Data set [10] has as its system L1210. In words: Antitumor activity in BDF1 mouse L1210 cells assessed as mean survival days at 22 mg/kg/day, ip. The format is functional. Conditions: route intraperitoneal.
Data set [11] relates to P388. The experiment in a line: Antitumor activity in BDF1 mouse bearing P388 cells assessed as mean survival days at 22 mg/kg/day, ip. In kind it is functional. Conditions: route intraperitoneal.
For data set [12], the system named is P388. The experiment in a line: Antitumor activity in BDF1 mouse bearing P388 cells assessed as number of cured mouse at 22 mg/kg/day, ip after 90 days. In kind it is functional, organism-based.
Data set [13] deals with L1210. The experiment in a line: Increase in median life span in BDF1 mouse L1210 cells at 50 mg/kg/day, ip relative to corn oil. In kind it is functional. The conditions noted are these: route intraperitoneal.
Data set [14] has as its system L1210. The experiment in a line: Antitumor activity in BDF1 mouse L1210 cells assessed as mean survival days at 50 mg/kg/day, ip. In kind it is functional. Conditions: route intraperitoneal.
Data set [15] relates to P388. In words: Antitumor activity in BDF1 mouse bearing P388 cells assessed as mean survival days at 50 mg/kg/day, ip. In kind it is functional. The conditions noted are these: route intraperitoneal.
For data set [16], the system named is P388. The experiment in a line: Antitumor activity in BDF1 mouse bearing P388 cells assessed as number of cured mouse at 50 mg/kg/day, ip after 90 days. The format is functional, organism-based.
Data set [17] has as its system L1210. The experiment in a line: Antitumor activity in BDF1 mouse L1210 cells assessed as number of cured mouse at 50 mg/kg/day, ip after 90 days. The format is functional, organism-based.
Data set [18] concerns P388. In words: Increase in median life span in BDF1 mouse bearing P388 cells at 50 mg/kg/day, ip relative to corn oil. Conditions: route intraperitoneal. In kind it is functional.
The subject of data set [19] is P388. In words: Antitumor activity in BDF1 mouse bearing P388 cells assessed as mean survival days at 200 mg/kg/day, ip. In kind it is functional. The conditions noted are these: route intraperitoneal.
In data set [20] the test system is L1210. In words: Increase in median life span in BDF1 mouse L1210 cells at 200 mg/kg/day, ip relative to corn oil. The format is functional. Conditions: route intraperitoneal.
The subject of data set [21] is P388. The experiment in a line: Antitumor activity in BDF1 mouse bearing P388 cells assessed as number of cured mouse at 200 mg/kg/day, ip after 90 days. The format is functional, organism-based.
Data set [22] relates to P388. In words: Increase in median life span in BDF1 mouse bearing P388 cells at 200 mg/kg/day, ip relative to corn oil. In kind it is functional. Conditions: route intraperitoneal.
In data set [23] the test system is L1210. The experiment in a line: Antitumor activity in BDF1 mouse L1210 cells assessed as number of cured mouse at 200 mg/kg/day, ip after 90 days. In kind it is functional, organism-based.
Data set [24] relates to L1210. In words: Antitumor activity in BDF1 mouse L1210 cells assessed as mean survival days at 200 mg/kg/day, ip. The format is functional. Conditions: route intraperitoneal.
Data set [25] relates to P388. The experiment in a line: Antitumor activity in BDF1 mouse bearing P388 cells assessed as mean survival days at 12.5 mg/kg/day, ip. In kind it is functional. Conditions: route intraperitoneal.
The subject of data set [26] is P388. The experiment in a line: Antitumor activity in BDF1 mouse bearing P388 cells assessed as number of cured mouse at 12.5 mg/kg/day, ip after 90 days. The format is functional, organism-based.
For data set [27], the system named is L1210. The experiment in a line: Antitumor activity in BDF1 mouse L1210 cells assessed as mean survival days at 12.5 mg/kg/day, ip. In kind it is functional. The conditions noted are these: route intraperitoneal.
For data set [28], the system named is L1210. In words: Antitumor activity in BDF1 mouse L1210 cells assessed as number of cured mouse at 12.5 mg/kg/day, ip after 90 days. In kind it is functional, organism-based.
The subject of data set [29] is L1210. In words: Increase in median life span in BDF1 mouse L1210 cells at 12.5 mg/kg/day, ip relative to corn oil. Conditions: route intraperitoneal. In kind it is functional.
For data set [30], the system named is P388. In words: Increase in median life span in BDF1 mouse bearing P388 cells at 12.5 mg/kg/day, ip relative to corn oil. In kind it is functional. Conditions: route intraperitoneal.
For data set [31], the system named is P388. In words: Increase in median life span in BDF1 mouse bearing P388 cells at 30 mg/kg/day, ip relative to corn oil. The format is functional. Conditions: route intraperitoneal.
Data set [32] concerns L1210. In words: Antitumor activity in BDF1 mouse L1210 cells assessed as number of cured mouse at 30 mg/kg/day, ip after 90 days. In kind it is functional, organism-based.
For data set [33], the system named is P388. The experiment in a line: Antitumor activity in BDF1 mouse bearing P388 cells assessed as mean survival days at 30 mg/kg/day, ip. In kind it is functional. The conditions noted are these: route intraperitoneal.
Data set [34] relates to L1210. In words: Antitumor activity in BDF1 mouse L1210 cells assessed as mean survival days at 30 mg/kg/day, ip. In kind it is functional. Conditions: route intraperitoneal.
Data set [35] relates to L1210. The experiment in a line: Increase in median life span in BDF1 mouse L1210 cells at 30 mg/kg/day, ip relative to corn oil. The format is functional. Conditions: route intraperitoneal.
The test system of data set [36] is P388. In words: Antitumor activity in BDF1 mouse bearing P388 cells assessed as mean survival days at 7.5 mg/kg/day, ip. Conditions: route intraperitoneal. In kind it is functional.
In data set [37] the test system is P388. The experiment in a line: Increase in median life span in BDF1 mouse bearing P388 cells at 7.5 mg/kg/day, ip relative to corn oil. The format is functional. Conditions: route intraperitoneal.
The subject of data set [38] is L1210. In words: Antitumor activity in BDF1 mouse L1210 cells assessed as number of cured mouse at 7.5 mg/kg/day, ip after 90 days. In kind it is functional, organism-based.
The test system of data set [39] is L1210. The experiment in a line: Increase in median life span in BDF1 mouse L1210 cells at 7.5 mg/kg/day, ip relative to corn oil. The format is functional. Conditions: route intraperitoneal.
Data set [40] relates to P388. The experiment in a line: Antitumor activity in BDF1 mouse bearing P388 cells assessed as number of cured mouse at 7.5 mg/kg/day, ip after 90 days. The format is functional, organism-based.
Data set [41] relates to L1210. The experiment in a line: Antitumor activity in BDF1 mouse L1210 cells assessed as mean survival days at 7.5 mg/kg/day, ip. In kind it is functional. Conditions: route intraperitoneal.

`CC(=O)N[C@H]1CC[C@H]2[C@@H]3NC(=O)C=C4C[C@@H](OC(=O)c5ccc(C)c(N(CCCl)CCCl)c5)CC[C@]4(C)[C@H]3CC[C@]12C`: the Activity with L1210 [1] amounted to 189.8%; with P388 [6], 300%. Further, the Survival was 20.5 days in the data set on L1210 [2] and 28.5 days in the data set on P388 [5]. The 50% lethal dose (LD50) (in general, the dose at which mortality reaches 50%) at 720 h in data set [3] amounted to 280 mg/kg. For the same molecule, the LD10 in the data set with Mus musculus was found to be 240 mg/kg. Also, in the data set with L1210 [4], the outcome was inactive.
As for `CC(=O)N[C@H]1CC[C@H]2[C@@H]3C(=O)C=C4C[C@@H](OC(=O)CCCc5ccc(N(CCCl)CCCl)cc5)CC[C@]4(C)[C@H]3CC[C@]12C`, the values for the Activity in the data set on L1210 [7] and with P388 [8] were 150% and 198%, respectively. Besides, the result in the data set with L1210 [9] and with P388 [12] was inactive. The molecule also showed a median lethal dose (LD50) at 720 h in data set [3] of 87 mg/kg. Moreover, the LD10 with Mus musculus amounted to 44 mg/kg. Also, the Survival in the data set with L1210 [10] is 16.2 days; with P388 [11], 18.8 days.
For the molecule `CC(=O)N[C@H]1CC[C@H]2[C@@H]3NC(=O)C=C4C[C@@H](OC(=O)CCCc5ccc(N(CCCl)CCCl)cc5)CC[C@]4(C)[C@H]3CC[C@]12C`, the Activity with L1210 [13] was determined as 140.7%; with P388 [18] it was 231%. Moreover, the Survival in the data set with L1210 [14] amounted to 15.2 days; with P388 [15] it was 22 days. Moreover, the result in the data set with P388 [16] and with L1210 [17] was inactive. The molecule also had an LD50 at 720 h in [3] of 180 mg/kg. Further, in the data set on Mus musculus, the LD10 was found to be 100 mg/kg.
In the case of `CC(=O)N[C@H]1CC[C@H]2[C@@H]3C(=O)C=C4C[C@@H](OC(=O)c5ccc(C)c(N(CCCl)CCCl)c5)CC[C@]4(C)[C@H]3CC[C@]12C`, the Survival with P388 [19] turned out to be 14.6 days; in the data set on L1210 [24] it was 13.7 days. Besides, the values for the Activity with L1210 [20] and in the data set with P388 [22] were 127% and 153%, respectively. In addition, the outcome in the data set with P388 [21] and with L1210 [23] was inactive. In [3], this molecule gave an LD50 at 720 h of 600 mg/kg. For the same molecule, the LD10 in the data set with Mus musculus was determined as 400 mg/kg.
As to `CC(=O)N[C@H]1CC[C@H]2[C@@H]3C(=O)C=C4C[C@@H](OC(=O)Cc5ccc(N(CCCl)CCCl)cc5)CC[C@]4(C)[C@H]3CC[C@]12C`, the Survival is 29.8 days with P388 [25] and 26.3 days in the data set on L1210 [27]. For the same molecule, the outcome with P388 [26] and with L1210 [28] was inactive. Further, the Activity was found to be 243% in the data set on L1210 [29] and 314% in the data set on P388 [30]. The LD50 at 720 h in data set [3] came out at 75 mg/kg. In the data set with Mus musculus, this molecule registered an LD10 of 25 mg/kg.
For `CC(=O)N[C@H]1CC[C@H]2[C@@H]3NC(=O)C=C4C[C@@H](OC(=O)Cc5ccc(N(CCCl)CCCl)cc5)CC[C@]4(C)[C@H]3CC[C@]12C`, the Activity was 221% in the data set with P388 [31] and 144.4% with L1210 [35]. Also, in the data set on L1210 [32], the result was inactive. The values for the Survival in the data set with P388 [33] and with L1210 [34] were 21 days and 15.6 days, respectively. Besides, in data set [3], the LD50 at 720 h amounted to 80 mg/kg. The same molecule showed an LD10 in the data set with Mus musculus of 60 mg/kg.
Consider `O=C(O)CCCc1ccc(N(CCCl)CCCl)cc1` [CHLORAMBUCIL], for which the Survival was found to be 14.7 days in the data set with P388 [36] and 12.3 days with L1210 [41]. The Activity in the data set on P388 [37] worked out at 155%; with L1210 [39] it was 114%. In [3], this molecule came in with a 50% lethal dose (LD50) at 720 h of 24 mg/kg. This molecule showed an LD10 in the data set on Mus musculus of 15 mg/kg. Besides, the result with L1210 [38] and in the data set on P388 [40] was inactive.
